Test system: rat sleep electroencephalogram
Assay: Effect for sleeping stage/waking stage, rat sleep electroencephalogram
Type: in vivo
Details: 30 or 100 mg/kg oral, 6 hours
Description: As non-motor symptoms in Parkinson's disease, sleep disorder such as insomnia (e.g. difficulty falling asleep, nocturnal awakening, etc.) is known. It is important to improve sleeping quality. The effect of the present compounds for sleep was evaluated by measuring rat sleep electroencephalogram.
In the present test, male Crlj: WI rats (CHARLES RIVER LABORATORIES JAPAN, INC.) were used. Under anesthesia, a radiofrequency transmitter (HD-S02, Data Science International, Inc.) was set in the peritoneal cavity of the rat, and two electrodes for measuring electroencephalogram were stereotaxically placed in the skull (frontoparietal electrode: 2 mm ahead of bregma and 2 mm left from midline, parietal electrode: 5 mm behind bregma and 2 mm right from midline). An electrode for recording electromyogram was placed in the dorsal neck muscle. After more than one week as postoperative recuperation period, the rats were used in the sleep electroencephalogram measurement.
The compound of Example 13 (30 mg/kg or 100 mg/kg) was orally administered to the rat just before light phase, and the electroencephalogram and electromyogram of the rat were recorded at 500 Hz for 6 hours in a breeding cage in a soundproof box. The recorded signals were classified to 3 stages, wake/REM sleep/non-REM sleep every 10 seconds with a sleep analysis program Sleepsign (version 3, Kissei Comtec Co., Ltd.), and aggregated. Specifically, when the myoelectric response was beyond the threshold defined for each individual animal, it was classified as wake, and otherwise it was classified as sleep. In the sleep, when the power value at delta wave (0.5-4 Hz) of EEG-frequency component was beyond the threshold defined for each individual beforehand, it was classified as non-REM sleep. When the power value at theta wave (4-8 Hz) was beyond 40% of the total power value at 0.5-80 Hz, it was classified as REM sleep.

**Q.** Which results are given for `C[C@H](c1noc2ccccc12)S(N)(=O)=O` [Example 13, (1R)-1-(1,2-benzoxazol-3-yl)ethane-1-sulfonamide]?
**A.** REM sleep latency: tended to elongate; REM sleep time: significantly shortened; non-REM sleep latency: significantly shortened; non-REM sleep time: increased; waking time: significantly shortened

— US11535599B2, “Benzisoxazole derivative” (Sumitomo Pharma Co., Ltd., priority 2020, dated 2022)
